Data taken from publication PMC6143625, “A high throughput screen for next-generation leads targeting malaria parasite transmission” (Nature Communications, 2018).

Experiments:
[1] = tested on: P. falciparum stage V female gametocytes (female gamete formation); assay: P. falciparum dual gamete formation assay (Pf DGFA), female readout (Pfs25 expression), 48 h carry-over format; type: cell-based, Plasmodium falciparum NF54; settings: primary screen, 2 uM, 48 h incubation, single replicate
[2] = tested on: P. falciparum stage V male gametocytes (male gamete formation); assay: P. falciparum dual gamete formation assay (Pf DGFA), male readout (exflagellation), 48 h carry-over format; type: cell-based, Plasmodium falciparum NF54; settings: primary screen, 2 uM, 48 h incubation, single replicate

Compound	%Inhibition Female @2uM [1]	%Inhibition Male @2uM [2]
COc1cccc2c1OCC(C(=O)N1CCN(C3CCCC3)C(=O)C1)C2 (stereo not shown) [DDD01252180]	<30%	176.84%
COc1ccc(-c2cc(CNc3ncnc4c3CCNCC4)no2)cc1 [DDD01252258]	36.22%	<30%
CN(C)c1nc2c(c(N(C)C)n1)CCN(C(=O)CN1C[C@H]3CC[C@@H]1C3)C2 [DDD01252415]	30.39%	<30%
Cc1c(NCc2cccnc2)cccc1C(=O)N1CCC(N(C)C)C1 (stereo not shown) [DDD01252445]	<30%	39.91%
c1ccn2c(C3CCCN(c4ncnc5c4CCNC5)C3)nnc2c1 (stereo not shown) [DDD01252518]	33.03%	<30%
O=C(c1cccc(S(=O)(=O)NCCc2ccccn2)c1)N1CCOCC1 [DDD01252530]	<30%	176.84%
CN(C)Cc1nnc(C2CCCN(Cc3ccc(Cl)s3)C2)n1C (stereo not shown) [DDD01252876]	<30%	184.62%
Cc1cc(CC(=O)N2CCN(CC(C)C)[C@@H]3CS(=O)(=O)C[C@@H]32)ccc1F [DDD01253102]	<30%	30.33%
Cc1ccc(-c2nc(CNC(C)CCO)[nH]c2-c2ccccn2)cc1 (stereo not shown) [DDD01253542]	47.40%	59.22%
CN1CC2(CCN(C(=O)c3ccc(=O)n(C)c3)CC2)CC1=O [DDD01253564]	30.30%	<30%
CS(=O)(=O)N1C[C@H]2CC[C@@H](C1)N(C(=O)CCn1cnc3ccccc31)C2 [DDD01253654]	<30%	35.49%
Cc1cc(NCc2ccc(O)cc2)n2nc(C)cc2n1 [DDD01253811]	99.46%	<30%
CC(C)OC(=O)N1CCC(Cc2cccc(C(N)=O)c2)C1 (stereo not shown) [DDD01254183]	<30%	132.02%
CSc1ccc(C(=O)N2CCCC(Nc3ccc(F)cc3)C2)cc1 (stereo not shown) [DDD01254674]	<30%	162.04%
Cc1oc(-c2ccoc2)nc1CN1CCCCC1CCc1ccccc1 (stereo not shown) [DDD01254868]	<30%	143.16%
O=C(CSc1ccncc1)N1CCC2(CC1)c1ccccc1CC2O (stereo not shown) [DDD01255239]	<30%	143.16%
CN(Cc1nccn1C)C1CCCN(CCCc2ccccc2)C1 (stereo not shown) [DDD01255359]	<30%	61.22%
CCc1nnc(CNC(=O)CCN2CCN(c3cccc(C)c3)CC2)s1 [DDD01255634]	<30%	133.78%
Cc1ccc(CN2CCN(C(=O)c3ccc(CO)cc3)C(C)C2=O)cc1 (stereo not shown) [DDD01255654]	38.25%	<30%

Compound	%Inhibition Female @2uM [1]	%Inhibition Male @2uM [2]
COC(=O)C1CCN(C(=O)c2cccc(NS(C)(=O)=O)c2C)CC1 [DDD01255952]	<30%	126.32%
COc1cccc2c1OCC(C(=O)N1CCC(NS(C)(=O)=O)CC1)C2 (stereo not shown) [DDD01255971]	<30%	160.00%
Cc1ccccc1C(=O)Nc1ccc(OC2CCN(C)CC2)cc1 [DDD01256105]	<30%	177.06%
Cc1cnn(CCCN2C(=O)CCc3ccccc32)c1 [DDD01256166]	<30%	31.82%
Cc1ccc(CN2CCCC(c3nnc(CN4CCCC4)n3C)C2)s1 (stereo not shown) [DDD01256510]	<30%	109.47%
COCCN(C)CCN1CC2(CCN(C3CCOCC3)CC2)OC1=O [DDD01256592]	<30%	44.84%
O=C(O)CCc1cc2n(n1)CCCN(C(=O)c1cc3ccccc3s1)C2 [DDD01256606]	30.77%	<30%
CC(C)(CNC1CCCN(Cc2ccccn2)C1)CN1CCOCC1 (stereo not shown) [DDD01256674]	31.10%	<30%
Cc1cc(C(=O)N2CCC(c3nccn3Cc3ccccn3)CC2)no1 [DDD01256728]	<30%	88.77%
CCOCC(=O)N1CCC(c2nccn2CC2CC2)CC1 [DDD01256942]	<30%	104.28%
CN(C)C(=O)N1C[C@H]2CC[C@@H](C1)N(C/C=C/c1ccc(F)cc1)C2 [DDD01256992]	32.94%	<30%
COc1ccc(C(=O)N2CCOC3(CNCCOC3)C2)c(OC)n1 (stereo not shown) [DDD01257050]	<30%	126.32%
CN(Cc1ccccc1CN1CCCC1)C(=O)c1c[nH]c(=O)[nH]1 [DDD01257093]	34.04%	<30%
Cc1ccc(F)cc1CC(=O)N(CCN1CCOCC1)Cc1ccco1 [DDD01257151]	36.90%	<30%
O=C1N(CCC2CCCCC2)CCCC1(O)CNCCc1ccccc1 (stereo not shown) [DDD01257222]	<30%	147.75%
CCn1cc(CN(C)C(=O)c2cccc(CCC(C)(C)O)c2)cn1 [DDD01257573]	32.19%	<30%
CN(CCO)Cc1nnc(C2CCN(C3CCCCC3)CC2)n1C [DDD01257771]	30.00%	<30%
COc1ccc(C(=O)C2CCCN(Cc3ccncc3)C2)c(OC)c1 (stereo not shown) [DDD01257881]	31.13%	<30%
c1cn(Cc2nnc(C3CCN(c4nccs4)CC3)n2C2CC2)cn1 [DDD01257895]	34.43%	<30%

Compound	%Inhibition Female @2uM [1]	%Inhibition Male @2uM [2]
Cc1nn(C)cc1C(=O)N1C[C@@H]2CC[C@H]1CN(S(=O)(=O)N(C)C)C2 [DDD01257957]	39.59%	<30%
Cc1cc(C)nc(N2Cc3cnn(Cc4ccc(F)cc4)c3C2)n1 [DDD01258067]	46.44%	<30%
COc1cc(C)c(CN2CCC3(CC2)C(C(=O)O)CC(=O)N3C)cc1C (stereo not shown) [DDD01258170]	46.51%	<30%
COc1cccc(S(=O)(=O)NC(=O)CC2CCCO2)c1 (stereo not shown) [DDD01295262]	46.83%	<30%
Cc1nn(C)c(C)c1CCC(=O)N1CCCC(n2cccn2)C1 (stereo not shown) [DDD01296064]	<30%	47.51%
Cc1cn2c(n1)CCC(NC(=O)Cn1cncn1)C2 (stereo not shown) [DDD01296301]	57.78%	<30%
NC(=O)COc1ccc(C(=O)N2CCCC(n3ccnc3)C2)cc1 (stereo not shown) [DDD01296946]	40.74%	<30%
Cc1cnn(CC2CCCN2Cc2nnc(C(C)C)o2)c1 (stereo not shown) [DDD01296988]	33.35%	60.45%
CN(Cc1nnc(C2CC2)n1C)C1CCN(Cc2nccn2C)C1 (stereo not shown) [DDD01296990]	<30%	57.47%
CCS(=O)(=O)N1CCC(NC(=O)c2cc(C)ccc2O)CC1 [DDD01297269]	56.83%	<30%
CC(C)CCc1nc(CNCC2CCCN2c2cccnn2)cs1 (stereo not shown) [DDD01297850]	39.30%	<30%
CCc1nnc2n1CCN(C(=O)c1nc(-c3ccco3)sc1C)C2 [DDD01298399]	<30%	30.87%
CN1CCOC(CNCc2coc(-c3ccccc3Cl)n2)C1 (stereo not shown) [DDD01298713]	<30%	34.66%
O=C(c1ccc(-n2ccnc2)cc1)N1CCCC(n2ccnc2)C1 (stereo not shown) [DDD01298772]	36.32%	<30%
Cc1cc(NC(=O)CN2CCc3cnc(C(C)C)nc3C2)on1 [DDD01298964]	41.23%	<30%
Cc1cc(C)cc(OCCN2CCn3c(C)nnc3C2)c1 [DDD01299569]	31.60%	<30%
CCN1CCN(Cc2csc(C(C)C)n2)CC1 [DDD01301366]	<30%	30.44%
CC(C)COC(C)C(=O)NCc1ccc(-n2cncn2)nc1 (stereo not shown) [DDD01301486]	33.08%	<30%
